In ChEMBL document CHEMBL1142611, “Neovibsanin F and its congeners, rearranged vibsane-type diterpenes from Viburnum suspensum” (J Nat Prod, 2006) one finds IC50, LC50 and Activity data, which are given here for six molecules.

The test system of one data set is KB. Briefly: Cytotoxicity against human KB cells. Format: functional, cell-based.
Data set [1] can be described thus: Toxicity in brine shrimp. The class given is organism-based. Particulars: artemia, in vivo; read-out: LD50 (the source's name); call rule not given here.
The test system of a further data set is Artemia. In words: Toxicity in brine shrimp at 100 ug/mL. The class given is organism-based. The note with it: in vivo.

In brackets after ≈: the same amount, converted by molar mass.

Consider `CC(C)=CCC[C@]1(C)/C=C/[C@@H](OC(=O)C=C(C)C)[C@](C)(O)/C=C/C(=O)/C(CO)=C\C1` [VIBSANIN B], for which the IC50 in the data set with KB was 3.5 µM. The LC50 in data set [1] worked out at 17.5 µg/mL (≈ 42 µM).

In the data set with KB, `CC(=O)C[C@@H]1OCC2=C1[C@H](/C=C/OC(=O)C=C(C)C)[C@@](C)(CCC=C(C)C)C[C@H]2O` [NEOVIBSANIN I] displayed an IC50 of 18 µM.

In the case of `COc1cccc2c1C(=O)c1c(O)c3c(c(O)c1C2=O)C[C@@](O)(C(=O)CO)C[C@@H]3O[C@H]1C[C@H](N)[C@H](O)[C@H](C)O1` [DOXORUBICIN], in the data set on KB, the IC50 was found to be 0.007 µM. Compared with the last molecule, the IC50 is about 2600-fold lower.

Turning to `CC(=O)C[C@@H]1OCC2=C1[C@H](/C=C/OC(=O)C=C(C)C)[C@@]1(C)CC[C@@H](C(C)(C)O)[C@@H]2C1` [NEOVIBSANIN F], the LC50 in data set [1] was 46 µg/mL (≈ 110 µM).

Turning to `CC(=O)C[C@@H]1OC(=O)C2=C1[C@H](/C=C/OC(=O)C=C(C)C)[C@@]1(C)CC[C@H](C(C)(C)O)[C@@H]2C1`, the Activity entry in the data set on Artemia was “Not Active”.

In the case of `CC(=O)C[C@@H]1OCC2=C1[C@H](/C=C/OC(=O)C=C(C)C)[C@@]1(C)CC[C@H](C(C)(C)O)[C@@H]2C1`, in the data set on Artemia, the Activity result is on record as “Not Active”.
